Data taken from patent US20240059738A1, “SWITCHING PEPTIDE AND MULTIPLEX IMMUNOASSAY METHOD USING SAME” (OPTOLANE TECHNOLOGIES INC., priority 2021, published 2024).

Columns and labels:
[1] = system: rabbit anti-HRP antibodies (Fab region); assay: Papain treatment of immobilized antibody with bound fluorescently labeled switching peptide (FIG. 6B); type: binding; settings: after papain treatment compared to before
Excerpt: FIG. 6A is a schematic diagram illustrating states before and after treatment of the antibody to which the four types of peptides of Example 1 were bound, respectively, with papain, which is a protease, and FIG. 6B is graphs illustrating a fluorescence intensity measured at a bottom (B) of the microplate and in a solution (S) after the papain treatment. In the case of this experiment, after immobilization of the antibodies (rabbit anti-HRP antibodies) on the microplate, binding between the antibody and the switching peptide was induced by treatment with a fluorescently labeled switching peptide, the unbound switching peptide was removed, and then the Fab region was hydrolyzed from the immobilized antibodies by adding papain, which is a protease.
Referring to FIG. 6A, the fluorescence at the bottom (B) of the microplate is expected to decrease after the papain reaction because the fluorescently labeled switching peptides are bound to the Fab region of antibodies, and the fluorescence in the solution is expected to increase because the Fab region to which the switching peptide is bound is hydrolyzed and dissolved into the solution. This prediction is proven to be true from the graphs of FIG. 6B.

[2] = system: Anti-HRP antibody(r); assay: Antigen-induced release of fluorescently labeled peptide from immobilized antibody (Table 2), HRP antigen; type: binding, rabbit; settings: for remaining fluorescence intensity at plate bottom after antigen binding (% of before): anti-HRP antibodies from rabbits; for Bottom (B) of microplate Change (%) / fluorescence intensity Bottom (B) of microplate After antigen binding / fluorescence intensity Bottom (B) of microplate Before antigen binding / fluorescence intensity In solution (S) After antigen binding / fluorescence intensity In solution (S) Before antigen binding: anti-HRP antibody (rabbit), HRP
[3] = system: Anti-HBsAg antibody(g); assay: Antigen-induced release of fluorescently labeled peptide from immobilized antibody (Table 2), HBsAg antigen; type: binding, goat; settings: for fluorescence intensity remaining at bottom of plate after antigen (% of before): anti-HBsAg antibodies from goats; for Bottom (B) of microplate Change (%) / fluorescence intensity Bottom (B) of microplate After antigen binding / fluorescence intensity Bottom (B) of microplate Before antigen binding / fluorescence intensity In solution (S) After antigen binding / fluorescence intensity In solution (S) Before antigen binding: anti-HBsAg antibody (goat), HBsAg
[4] = system: Anti-hCG antibody(m); assay: Antigen-induced release of fluorescently labeled peptide from immobilized antibody (Table 2), hCG antigen; type: binding; settings: anti-hCG antibody (mouse)
[5] = system: Anti-CRP antibody(r); assay: Antigen-induced release of fluorescently labeled peptide from immobilized antibody (Table 2), CRP antigen; type: binding; settings: anti-CRP antibody (rabbit)
[6] = system: anti-HRP antibody from a rabbit; assay: One-step immunoassay with varying HRP concentration (FIGS. 7A-7C); type: binding; settings: HRP 0.3 to 100 μM; for Kd: estimated, read-out: Equilibrium dissociation constants
Excerpt: FIG. 7A is a schematic diagram for explaining an immunoassay method using fluorescently labeled peptide compounds of Example 1, and FIGS. 7B and 7C are graphs illustrating the fluorescence intensities in a solution and at a bottom of the microplate depending on a concentration of the antigen measured by the immunoassay method illustrated in FIG. 7A. In this experiment, an anti-HRP antibody from a rabbit immobilized on a microplate was used as the binding antibody and HRP was used as the antigen.

[7] = Net charge of switching peptides at pH 6.0 to 8.0; type: physicochemical
Protocol: Regarding the antibody binding properties of the switching peptides at pH 6.0 to 8.0, a net charge of H1 and L2 peptides decreased to 0.5 at pH 6.0 to 7.0 due to a histidine residue with a pKa value of 6.02. In addition, the net charge of the H2 and L2 peptides decreased to 0.5 at pH 7.0 to 8.0 due to a cysteine residue with a pKa value of 8.18. […] Therefore, the immunoassay was performed by selecting an L1 peptide having specific dissociation from hepatitis B surface antigen-antibody binding and stability within a pH range of human serum immunoassay.

[8] = pH 7.0 to 8.0, cysteine residue pKa 8.18

Row | Sequence | decrease of fluorescence intensity at the bottom of the microplate [1] [%] | increase of fluorescence intensity in the solution [1] | remaining fluorescence intensity at plate bottom after antigen binding (% of before) [2] [%] | Bottom (B) of microplate Change (%) [2] [%] | fluorescence intensity Bottom (B) of microplate After antigen binding [2] | fluorescence intensity Bottom (B) of microplate Before antigen binding [2] | fluorescence intensity In solution (S) After antigen binding [2] | fluorescence intensity In solution (S) Before antigen binding [2] | fluorescence intensity remaining at bottom of plate after antigen (% of before) [3] [%] | Bottom (B) of microplate Change (%) [3] [%] | fluorescence intensity Bottom (B) of microplate After antigen binding [3] | fluorescence intensity Bottom (B) of microplate Before antigen binding [3] | fluorescence intensity In solution (S) After antigen binding [3] | fluorescence intensity In solution (S) Before antigen binding [3] | Bottom (B) of microplate Change (%) [4] [%] | In solution (S) Change (%) [4] | fluorescence intensity Bottom (B) of microplate After antigen binding [4] | fluorescence intensity Bottom (B) of microplate Before antigen binding [4] | fluorescence intensity In solution (S) After antigen binding [4] | fluorescence intensity In solution (S) Before antigen binding [4] | further results
1 | VYYCAREPTGTGIYFDVWGK [H2, VYYCA REPTG TGIYF DVWGK] | 58.7 | 2,356% | 14.8 | −85.2 | 1806 | 122230 | 18128 | 2272 | 63.9 | −36.1 | 18773 | 29367 | 9136 | 1784 | −88.5 | +416% | 23320 | 23320 | 8545 | 1654 | Bottom (B) of microplate Change (%) [5]: −39.5%; In solution (S) Change (%) [5]: +677%; fluorescence intensity Bottom (B) of microplate After antigen binding [5]: 22205; fluorescence intensity Bottom (B) of microplate Before antigen binding [5]: 22205; fluorescence intensity In solution (S) After antigen binding [5]: 16311; fluorescence intensity In solution (S) Before antigen binding [5]: 2099; fluorescence intensity in the solution depending on the concentration of the antigen (HRP) [6]: increase; Kd [6]: 3110 nM; net charge [7, 8]: 0.5
2 | VYYCFQGSHVPFTK [L2, VYYCF QGSHV PFTK] | 72.5 | 2,452% | 25.5 | −74.5 | 3208 | 12584 | 16135 | 2315 | 35.2 | −64.8 | 9856 | 28002 | 15359 | 2279 | −90.7 | +456% | 3072 | 33156 | 9402 | 1692 | Bottom (B) of microplate Change (%) [5]: −44.9%; In solution (S) Change (%) [5]: +883%; fluorescence intensity Bottom (B) of microplate After antigen binding [5]: 11236; fluorescence intensity Bottom (B) of microplate Before antigen binding [5]: 20394; fluorescence intensity In solution (S) After antigen binding [5]: 32187; fluorescence intensity In solution (S) Before antigen binding [5]: 3274; fluorescence intensity in the solution depending on the concentration of the antigen (HRP) [6]: increase; Kd [6]: 1480 nM; net charge ([7]; pH 6.0 to 7.0, histidine residue pKa 6.02): 0.5; net charge [7, 8]: 0.5
